The values that follow are results of earlier work, collected in patent publication US20080031932A1, “Transdermal atomoxetine formulations and associated methods” (Watson Laboratories, Inc., priority 2006, published 2008).

One series addresses serotonin reuptake (Homo sapiens, UniProt P31645).
Series [1] deals with norepinephrine reuptake transporter (Homo sapiens, UniProt P23975). Particulars: compared to atomoxetine.
Sequence of norepinephrine reuptake transporter (P23975 whole entry): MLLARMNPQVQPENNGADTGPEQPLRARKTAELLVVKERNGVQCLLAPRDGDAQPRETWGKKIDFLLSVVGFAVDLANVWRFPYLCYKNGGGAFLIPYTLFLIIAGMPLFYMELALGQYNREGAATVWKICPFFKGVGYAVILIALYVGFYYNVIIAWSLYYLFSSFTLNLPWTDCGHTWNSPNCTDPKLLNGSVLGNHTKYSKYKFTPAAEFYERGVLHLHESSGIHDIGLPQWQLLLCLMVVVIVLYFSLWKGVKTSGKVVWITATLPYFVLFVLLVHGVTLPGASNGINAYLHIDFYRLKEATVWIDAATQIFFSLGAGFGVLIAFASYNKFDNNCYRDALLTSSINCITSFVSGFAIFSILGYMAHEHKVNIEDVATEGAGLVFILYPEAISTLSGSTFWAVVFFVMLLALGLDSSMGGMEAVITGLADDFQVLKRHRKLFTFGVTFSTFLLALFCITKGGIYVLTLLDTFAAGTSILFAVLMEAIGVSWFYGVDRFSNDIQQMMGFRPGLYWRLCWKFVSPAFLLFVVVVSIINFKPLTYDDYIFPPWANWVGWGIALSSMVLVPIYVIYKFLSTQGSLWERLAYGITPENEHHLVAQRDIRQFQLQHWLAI

Sequence of serotonin reuptake (P31645 whole entry): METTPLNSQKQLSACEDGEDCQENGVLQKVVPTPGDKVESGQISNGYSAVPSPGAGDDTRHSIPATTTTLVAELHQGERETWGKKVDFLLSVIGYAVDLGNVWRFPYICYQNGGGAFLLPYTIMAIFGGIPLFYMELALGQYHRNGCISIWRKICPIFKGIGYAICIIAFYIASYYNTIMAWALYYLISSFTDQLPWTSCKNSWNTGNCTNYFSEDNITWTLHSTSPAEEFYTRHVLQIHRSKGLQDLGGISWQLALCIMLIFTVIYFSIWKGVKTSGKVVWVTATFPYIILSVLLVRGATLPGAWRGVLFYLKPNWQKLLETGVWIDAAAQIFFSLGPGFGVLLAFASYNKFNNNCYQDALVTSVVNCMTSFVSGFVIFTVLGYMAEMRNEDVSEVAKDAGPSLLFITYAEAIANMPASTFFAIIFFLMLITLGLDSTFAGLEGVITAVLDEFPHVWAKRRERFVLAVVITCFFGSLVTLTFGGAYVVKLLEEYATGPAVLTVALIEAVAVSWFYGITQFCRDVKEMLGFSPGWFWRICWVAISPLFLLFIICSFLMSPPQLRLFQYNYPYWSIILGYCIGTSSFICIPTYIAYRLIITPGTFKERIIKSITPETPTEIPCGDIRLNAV

For `CNCCC(Oc1ccc(O)cc1C)c1ccccc1` (stereo not drawn) [Example 4HA, 4-hydroxyatomoxetine], the “affinity to other receptor systems” value in the series with other receptor systems was “little affinity”. Besides, on serotonin reuptake, the serotonin reuptake inhibition entry is listed as “pharmacologically active serotonin reuptake inhibitor”.
Consider `CNCCC(Oc1ccccc1C)c1ccccc1` (single isomer, unassigned; (-)) [atomoxetine, (−)-N-methyl-3-phenyl-3-(o-tolyloxy)-propylamine], for which the plasma half-life result (individuals having normal activity in the CYP2D6 pathway) is “about 5 hours”. The half-life result (individuals with reduced activity in the CYP2D6 pathway (poor metabolizers)) was “about 24 hours”.
On to `Cc1ccccc1OC(CCN)c1ccccc1` (stereo not drawn) [NDA, N-desmethylatomoxetine], for which, in the series on other receptor systems, the “affinity to other receptor systems” value is on record as “little affinity”. The “inhibitory activity to the norepinephrine reuptake transporter” value in series [1] is listed as “less active”.
